Results as given in PMC10759609, “A novel PDPN antagonist peptide CY12-RP2 inhibits melanoma growth via Wnt/β-catenin and modulates the immune cells” (Journal of Experimental & Clinical Cancer Research : CR, 2024).

Assays:
melanoma = conditions: in vitro and in vivo; cited from earlier work
From the text: Therapeutic peptides are a novel and promising type of anti-cancer drug, due to several important advantages over proteins or antibodies: they are molecularly small, easy to synthesize, and capable of penetrating cell membranes; they also have high biological activity, affinity, chemical diversity, and specificity. Phage display technology is a high-throughput screening technique that greatly amplifies the application of directional evolution techniques for antibody and peptide modification screening, and first described in 1985 by Smith. Phage display inserts th ...

[1] = test system: EMT proteins in A375 LV-shPDPN cells; experiment: Western blot EMT proteins, PDPN-knockdown A375 cells; format: cell-based
Method: (§1) Melanoma cells were cultured in a 60 mm dish with a complete medium and various peptide concentrations (0 μM, 5 μM, 25 μM). Protein was extracted after cells were cultured or treated for 48 h using protein lysis buffer, separated using a 10% or 15% Bis–Tris PAGE gel (Epizyme Biomedical Technology, Shanghai, China), and transferred onto a PVDF membrane (Thermo Fisher Scientific) according to standard techniques. The Western blots were imaged using Bio-rad Chemidoc MP and quantified using ImageJ software (NIH).
(§2) To confirm whether PDPN could affect migration and invasion of melanoma cells in wnt/β-catenin signaling pathway-dependent manner, A375 cells with PDPN knockdown were treated with a Wnt/β-catenin signaling pathway agonist (SKL2001) and PDPN overexpression A875 cells were treated with an inhibitor (IWR1). […] Furthermore, the levels of EMT positively correlated proteins, including N-cadherin, vimentin and snail were all suppressed, while E-cadherin was increased in A375 cells transfected with LV-shPDPN, and these phenomena were reversed following treatment with SKL2001 (Fig. S2E). In contrast, in the A875 cells, the activation of EMT by PDPN overexpression was blocked by IWR1 (Fig. S2E).

melanoma cells [2] = experiment: Wound healing with SKL2001, melanoma cell lines; format: cell-based; conditions: combined with CY12-RP2
Method: A375 GFP, A875 GFP, A375 PDPN^−/−, and A875 PDPN^+/+ cells were all seeded in 12-well plates at a density of 5 × 10^5 cells/well. When the cells reached 100% confluence the next day, the straight wound was scraped in each cultured well with a 20 µL pipette tip. Then the cells were washed repeatedly with complete DMEM to remove the cellular debris, and the medium was changed to a low serum medium containing 0.05% FBS. The scratch-treated cells were subsequently cultured for an additional indicated time and imaged at 0 h, 12 h, 24 h and 48 h. Quantification of wound closure was accomplished by measuring the distance between the phase contrast images’ anterior edges of the contralateral surfaces using ImageJ software. As for peptide (CY12-RP2) function experiments, images of phase contrast for A375 GFP and A875 GFP cells were captured at 0 h before peptide administration. […]
(§3) (A) TUNEL analysis of apoptosis was conducted on orthotopic xenografts tumor sections using fluorescence staining. […] (B) Fluorescence staining of Ki67 was carried out on orthotopic xenograft tumor sections.
(§4) The power field scale bar, 100 μm. (C) Serum His-CY12-RP2 levels of the orthotopic xenografts mice treated by various dosage of CY12-RP2 were measured by His-ELISA kit. […]
(§5) kit. (E) Serum ALT, AST, TG, and γ-GT levels of the orthotopic xenografts model were measured by ELISA. […]

[3] = test system: Wnt/β-catenin signaling pathway; experiment: Western blot, EMT and Wnt/β-catenin pathway, melanoma cells; format: cell-based; conditions: combined with CY12-RP2; SKL2001 50 μM; Western blot
Method: as §1
Fig. S4: The inhibition of cells metastasis and invasion by CY12-RP2 can be […]
(A, B) The inhibition of CY12-RP2 on the migration capacity of melanoma cell lines was reversed by SKL2001 (A). Statistical analysis was performed to determine the migrated distance (B). The power field scale bar, 100 μm. (C, D) Effect of CY12-RP2 on the invasive ability of melanoma cell lines were reversed by SKL2001 (C). […]
as §3, §4, §5

melanoma cells [4] = experiment: Transwell invasion with SKL2001, melanoma cell lines; format: cell-based; conditions: combined with CY12-RP2
Method: For invasion assay, matrigel (Corning, New York, USA) was coated on the upper surface of the upper chamber. The upper chamber was filled with DMEM medium containing 2% FBS, while the lower chamber contained a medium supplemented with 20% FBS. In brief, melanoma cells (A375 GFP, A875 GFP, A375 PDPN^−/−, and A875 PDPN^+/+ cells) were seeded in the upper chamber of the transwell plate (Corning, New York, USA) at about 5 × 10^4 cells/well with the medium as described above. For peptide functionality experiments, A375 and A875 cells were seeded in the upper chamber of the transwell plate at a density of 5 × 10^4 cells/well with various peptide concentrations (0 μM, 5 μM, 25 μM). Transwell inserts were fixed using 4% paraformaldehyde after 48 h cell invasion, and crystalline violet was used for staining. The quantities of invading cells were quantified using ImageJ software (NIH). […]
as §3, §4, §5

[5] = test system: A375 PDPN knockdown cells; experiment: Transwell, PDPN-knockdown A375 cells; format: cell-based; conditions: A375 with PDPN knockdown
Method: (§6) For invasion assay, matrigel (Corning, New York, USA) was coated on the upper surface of the upper chamber. The upper chamber was filled with DMEM medium containing 2% FBS, while the lower chamber contained a medium supplemented with 20% FBS. In brief, melanoma cells (A375 GFP, A875 GFP, A375 PDPN^−/−, and A875 PDPN^+/+ cells) were seeded in the upper chamber of the transwell plate (Corning, New York, USA) at about 5 × 10^4 cells/well with the medium as described above. For peptide functionality experiments, A375 and A875 cells were seeded in the upper chamber of the transwell plate at a density of 5 × 10^4 cells/well with various peptide concentrations (0 μM, 5 μM, 25 μM). Transwell inserts were fixed using 4% paraformaldehyde after 48 h cell invasion, and crystalline violet was used for staining. The quantities of invading cells were quantified using ImageJ software (NIH).
(§7) To confirm whether PDPN could affect migration and invasion of melanoma cells in wnt/β-catenin signaling pathway-dependent manner, A375 cells with PDPN knockdown were treated with a Wnt/β-catenin signaling pathway agonist (SKL2001) and PDPN overexpression A875 cells were treated with an inhibitor (IWR1). […]

[6] = test system: A375 PDPN knockdown cells; experiment: Wound healing, PDPN-knockdown A375 cells; format: cell-based; conditions: A375 with PDPN knockdown
Method: (§8) A375 GFP, A875 GFP, A375 PDPN^−/−, and A875 PDPN^+/+ cells were all seeded in 12-well plates at a density of 5 × 10^5 cells/well. When the cells reached 100% confluence the next day, the straight wound was scraped in each cultured well with a 20 µL pipette tip. Then the cells were washed repeatedly with complete DMEM to remove the cellular debris, and the medium was changed to a low serum medium containing 0.05% FBS. The scratch-treated cells were subsequently cultured for an additional indicated time and imaged at 0 h, 12 h, 24 h and 48 h. Quantification of wound closure was accomplished by measuring the distance between the phase contrast images’ anterior edges of the contralateral surfaces using ImageJ software. As for peptide (CY12-RP2) function experiments, images of phase contrast for A375 GFP and A875 GFP cells were captured at 0 h before peptide administration. The cells were then treated with CY12-RP2 (0 μM, 5 μM, 25 μM) for 24 h or 48 h, and then images were acquired again. Handling of the experimental results were carried out as previously described.
as §7

[7] = test system: A875 PDPN overexpression cells; experiment: Transwell, PDPN-overexpressing A875 cells; format: cell-based; conditions: A875 with PDPN overexpression
Method: as §6, §7

[8] = test system: EMT in A875 PDPN overexpression cells; experiment: Western blot EMT proteins, PDPN-overexpressing A875 cells; format: cell-based
Method: as §1, §2

[9] = test system: A875 PDPN overexpression cells; experiment: Wound healing, PDPN-overexpressing A875 cells; format: cell-based; conditions: A875 with PDPN overexpression
Method: as §8, §7

Molecule: [-CSSRTMHHC-] [peptide screened by C7C phage display library]
- melanoma growth and invasion (melanoma): suppress melanoma growth and invasion both in vitro and in vivo

Molecule: O=C(NCCCn1ccnc1)c1cc(-c2ccco2)on1 [SKL2001]
- changes of N-cadherin, vimentin, snail and E-cadherin by LV-shPDPN [1]: reversed
- effect of SKL2001 on CY12-RP2 inhibition of migration (melanoma cells [2]): significantly reversed
- effect of SKL2001 on CY12-RP2 inhibition of EMT and Wnt/β-catenin signaling [3]: significantly reversed
- effect of SKL2001 on CY12-RP2 inhibition of invasion (melanoma cells [4]): significantly reversed
- decrease of invasion mediated by PDPN knockdown [5]: abrogated
- inhibition of migration by PDPN knockdown [6]: abolished

Molecule: O=C(Nc1cccc2cccnc12)c1ccc(N2C(=O)[C@@H]3[C@H](C2=O)[C@@H]2C=C[C@H]3C2)cc1 [IWR1]
- increase of invasion mediated by PDPN overexpression [7]: abrogated
- activation of EMT by PDPN overexpression [8]: blocked
- promotion of migration by PDPN overexpression [9]: inhibited
